What all share (experiment): relative viability (nuclei count vs DMSO), 5 days (fraction); higher = more cells survive
Compound in experiment [1]: CCn1c(-c2nonc2N)nc2c(C#CC(C)(C)O)ncc(OC[C@H]3CCCNC3)c21 + Cc1nc(NC(=O)N2CCC[C@H]2C(N)=O)sc1-c1ccnc(C(C)(C)C(F)(F)F)c1 [Alpelisib] (partner 2 µM)
Summed up: (§1)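 One day after seeding in 1536-well plates, lung cancer cell lines were dosed by pin tool. Dosing was either single-drug or a fixed anchor-drug dose plus five library-drug doses (not always all listed) in √10 steps. After 5 days, nuclei were stained in one fix-and-stain step and counted on 4× images, and relative viability is the nuclei count of treated wells over that of vehicle wells, given as the median of duplicate plates.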

Compound in experiment [2]: CCn1c(-c2nonc2N)nc2c(C#CC(C)(C)O)ncc(OC[C@H]3CCCNC3)c21 + CS(=O)(=O)CCNCc1ccc(-c2ccc3ncnc(Nc4ccc(OCc5cccc(F)c5)c(Cl)c4)c3c2)o1 [Lapatinib] (partner 2 µM)
Summed up:
as §1

Compound in the experiment “BAM7 + Decitabine”: CCOC1=CC=CC=C1N=NC2=C(NN(C2=O)C3=NC(=CS3)C4=CC=CC=C4)C [BAM7] + Nc1ncn([C@H]2C[C@H](O)[C@@H](CO)O2)c(=O)n1 [Decitabine] (partner 2 µM)
Summed up: as §1

Compound in the experiment “BAM7 + Alpelisib”: CCOC1=CC=CC=C1N=NC2=C(NN(C2=O)C3=NC(=CS3)C4=CC=CC=C4)C [BAM7] + Cc1nc(NC(=O)N2CCC[C@H]2C(N)=O)sc1-c1ccnc(C(C)(C)C(F)(F)F)c1 [Alpelisib] (partner 2 µM)
Summed up:
as §1

For SK-MES-1, the relative viability in experiment [1] (first compound 0.01 µM) was 0.87; in experiment [1] (first compound 0.03162 µM), 0.916; in experiment [1] (first compound 0.1 µM) it was 0.856; in experiment [1] (first compound 0.3162 µM), 1.11; in experiment [1] (first compound 1 µM), 0.953; in experiment [2] (first compound 0.01 µM), 0.46. Besides, the relative viability in experiment [2] (first compound 0.03162 µM) turned out to be 0.425; in experiment [2] (first compound 0.1 µM), 0.507; in experiment [2] (first compound 0.3162 µM), 0.424; in experiment [2] (first compound 1 µM), 0.406; with BAM7 + Decitabine (first compound 0.5 µM), 0.346; in the experiment with BAM7 + Decitabine (first compound 5 µM), 0.337. In addition, the relative viability with BAM7 + Decitabine (first compound 15.81 µM) amounted to 0.375; with BAM7 + Decitabine (first compound 50 µM), 0.395; in the experiment with BAM7 + Alpelisib (first compound 0.5 µM), 1.1; with BAM7 + Alpelisib (first compound 5 µM), 0.9; with BAM7 + Alpelisib (first compound 15.81 µM), 0.985; in the experiment with BAM7 + Alpelisib (first compound 50 µM), 1.01.

SW 1573: the relative viability in experiment [1] (first compound 0.01 µM) came to 0.717; in experiment [1] (first compound 0.03162 µM) it was 0.783; in experiment [1] (first compound 0.1 µM) it was 0.656; in experiment [1] (first compound 0.3162 µM), 0.73; in experiment [1] (first compound 1 µM), 0.734; in experiment [2] (first compound 0.01 µM), 1.1. In addition, the relative viability came to 1 in experiment [2] (first compound 0.03162 µM); 1.02 in experiment [2] (first compound 0.1 µM); 0.869 in experiment [2] (first compound 0.3162 µM); 0.946 in experiment [2] (first compound 1 µM); 0.502 with BAM7 + Decitabine (first compound 0.5 µM); 0.551 in the experiment with BAM7 + Decitabine (first compound 5 µM). The relative viability with BAM7 + Decitabine (first compound 15.81 µM) stood at 0.636; with BAM7 + Decitabine (first compound 50 µM) it was 0.594; with BAM7 + Alpelisib (first compound 0.5 µM) it was 0.777; with BAM7 + Alpelisib (first compound 5 µM) it was 0.833; with BAM7 + Alpelisib (first compound 15.81 µM) it was 0.85; with BAM7 + Alpelisib (first compound 50 µM) it was 0.75.

The values are drawn from the supplement of paper PMC10307832.
